Where two headings read alike, the source gives them in different places.
Test system: SARS-CoV-2 Delta variant
Details: for lung histopathology (H&E): day 2 and day 4; for brain histopathology (H&E): day 4
[1] = day 4, both 100 mpk and 200 mpk groups

O=C[C@H](C[C@@H]1CCNC1=O)NC(=O)[C@H](CC1CCCCC1)NC(=O)c1cc2ccccc2[nH]1 [FB2001]
change in the body weight of the mice (100 mpk and 200 mpk groups, vs day 0): no significant change | reduction of lung viral load (100 mpk, day 2, vs vehicle): 1.02 log10 copies/g | lung histopathology (H&E) (100 mpk): mild interstitial inflammatory cell infiltration | brain histopathology (H&E) (100 mpk): some neurons were denatured | reduction of brain viral load (100 mpk, day 4, vs vehicle): 2.37 log10 copies/g | reduction of lung viral load (100 mpk, day 4, vs vehicle): 0.67 log10 copies/g | reduction of lung viral load (200 mpk, day 2, vs vehicle): 1.60 log10 copies/g | reduction of virus titer in lung (200 mpk, day 2, vs vehicle): 3.57 log10 PFU/g | lung histopathology (H&E) (200 mpk): decreased inflammation and normal alveolar spaces | brain histopathology (H&E) (200 mpk): Neuronal cells were neatly arranged and abundant | reduction of brain viral load (200 mpk, day 4, vs vehicle): 5.26 log10 copies/g | reduction of lung viral load (200 mpk, day 4, vs vehicle): 1.14 log10 copies/g | brain immunohistochemistry staining of viral NP [1]: nearly cleared | lung immunohistochemistry staining of viral NP [1]: almost cleared | Viral titer in brain, Mean (mouse, in vivo): below the detection limit | Viral titer in lung, Mean (mouse, in vivo): below the detection limit

Source: PMC9617675 (Antiviral Research, 2022)
